This is an account of results in US7183267B2, “β-lactamase inhibitors and methods of use thereof” (priority 2003, dated 2007).

Like-named read-outs stand apart in the source and are kept apart here.

The target in assay [1] is T1, AmpC β-lactamase (Escherichia coli, UniProt P00811).
T1 construct: made in house; host or cells: E. coli BL21 (DE3)
Briefly: AmpC β-lactamase competitive inhibition assay (nitrocefin hydrolysis). In kind it is biochemical. As for the experimental part:
The gene for AmpC β-lactamase (accession number P00811) was obtained from Escherichia coli K12 strain W3110 (American Type Culture Collection, Rockville Md.). E. coli was grown and plasmid (F-lacIq lacPL8 ampC::lambdacI+) was isolated via Qiagen (Valencia, Calif.) mini prep. The gene for AmpC was amplified in two pieces via polymerase chain reaction, ligated and purified by agarose gel electrophoresis. The ligated gene was inserted into a pET200 vector via a TOPO reaction (Invitrogen, Carlsbad, Calif.).
BL21 (DE3) (Invitrogen) cells were transformed by heat-shock with the prepared plasmid. These cells were grown to an OD600 of 0.8 at 37° C. Isopropylthiogalactoside (IPTG) was added to 1 mM, incubation temperature decreased to 25° C. and the cells were grown for an additional 18 hours. After 18 hours, the E. coli was pelleted by centrifugation, and discarded. The growth media was concentrated and dialyzed versus 100 mM Tris, pH 7.0. This solution was run through an equilibrated Q-resin column, and washed with excess 100 mM Tris, pH 7.0.
(§1) The competitive inhibition of β-lactamase was determined spectrophotometrically using a Varian (Walnut Creek, Calif.) Cary 100 UV-Visible spectrophotometer. β-lactamase activity was followed by measuring the hydrolysis of nitrocefin, [3-(2,4-dinitrostyryl)-(6R, 7R)-7-(2-thienylacetamido)-ceph-3-em-4-carboxylic acid, E-isomer], (Calbiochem, San Diego, Calif.) at 486 nm. Inhibition assays were performed at 25° C. in 50 mM sodium phosphate, 5% DMSO, pH 7.0. […] Penicillin G (Sigma, St. Louis, Mo.) was also used as a substrate to determine KM and kcat.
(§2) Inhibitor was added to protein and incubated for ten minutes before the addition of substrate. Inhibition constants were determined by measuring the loss of P-lactamase activity with increasing inhibitor concentrations and fitting the data to standard equations for competitive inhibition.

The target of assay [2] is T2, TEM-1 β-lactamase (Escherichia coli, UniProt P62593). Briefly: Isothermal titration calorimetry, binding to TEM-1 β-lactamase (Example 17). The note with it: ITC. As to the method: (§3) Isothermal titration calorimetry was performed on a high-precision VP-ITC titration calorimeter (Microcal Inc., Northampton, Mass.). β-Lactamase solutions were titrated with inhibitors in 50 mM sodium phosphate, 2% DMSO, pH 7.0, with β-lactamase concentrations ranging from 15 to 25 μM and inhibitor concentrations ranging from 300 to 1000 μM. The heat evolved from each injection was obtained by integrating the calorimetric signal. Heat of binding was obtained as the difference between the heat of reaction and the heat of inhibitor dilution. Data were analyzed using Origin 7.0 (OriginLab Corporation, Northampton, Mass.).
(§4) These methods can also be used to express and assay recombinant TEM-1 variant of β-lactamase.
Also shown are the results obtained for β-lactamase variant TEM-1.
On the technique in general: In ITC the heat of successive injections is recorded.

Assay [3] addresses T2, TEM-1 β-lactamase. Put plainly: TEM-1 β-lactamase inhibition assay (nitrocefin hydrolysis, 486 nm). In kind it is biochemical. As to the method:
The inhibition of TEM-1 β-lactamase was determined spectrophotometrically. B-lactamase activity was followed by measuring the hydrolysis of nitrocefin, [3-(2,4-dinitrostyryl)-(6R, 7R)-7-(2-thienylacetamido)-ceph-3-em-4-carboxylic acid, E-isomer], (Calbiochem, San Diego, Calif., USA) at 486 nm. Inhibition assays were performed at 25° C. in 50 mM sodium phosphate, 5% DMSO, pH 7.0. […] Inhibitor was added to the enzyme and incubated for ten minutes before the addition of substrate. Inhibition constants (Ki) for the inhibitors are obtained at the desired temperature and solvent conditions by measuring the rate of substrate hydrolysis at increasing amounts of inhibitors.
as §1, §2, §4

In assay [4] the target is T1, AmpC β-lactamase. The conditions noted are these: binding to AmpC; ITC. As for the experimental part:
as §3
Isothermal titration calorimetry was undertaken to determine the thermodynamic characteristics of binding to AmpC β-lactamase.

Setting [5] is: Ki, 25° C., 50 mM sodium phosphate, 5% DMSO, pH 7.0, enzyme 5 nM, nitrocefin 167 μM.

T1 sequence (P00811 20-377): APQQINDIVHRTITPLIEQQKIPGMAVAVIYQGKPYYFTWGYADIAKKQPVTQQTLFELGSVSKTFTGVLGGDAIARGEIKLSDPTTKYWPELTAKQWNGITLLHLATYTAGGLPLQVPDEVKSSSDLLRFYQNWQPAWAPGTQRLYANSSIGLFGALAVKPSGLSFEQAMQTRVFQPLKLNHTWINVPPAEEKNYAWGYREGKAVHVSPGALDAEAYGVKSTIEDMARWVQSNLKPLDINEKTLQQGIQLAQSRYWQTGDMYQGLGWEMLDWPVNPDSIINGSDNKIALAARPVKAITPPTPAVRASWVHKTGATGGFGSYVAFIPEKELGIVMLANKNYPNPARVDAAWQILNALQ
T2 sequence (P62593 24-286 limits assumed): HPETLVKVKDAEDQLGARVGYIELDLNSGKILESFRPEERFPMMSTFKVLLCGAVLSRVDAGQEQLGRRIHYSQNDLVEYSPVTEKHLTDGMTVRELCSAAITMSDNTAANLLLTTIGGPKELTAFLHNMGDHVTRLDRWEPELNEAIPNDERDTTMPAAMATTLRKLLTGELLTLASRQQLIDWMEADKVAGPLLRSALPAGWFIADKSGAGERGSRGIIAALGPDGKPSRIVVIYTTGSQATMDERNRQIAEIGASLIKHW

Broadly, the Ki is a dissociation constant, usually derived from enzyme kinetics or from competition with a known ligand. For the molecule `O=C(Oc1ccc(OC(=O)c2cc(B(O)O)cc([N+](=O)[O-])c2)c(Cl)c1)c1cc(B(O)O)cc([N+](=O)[O-])c1` [Compound (2b), 3-Borono-5-nitrobenzoic acid 2-chloro-1,4-phenylene ester], the inhibition constant (Ki) in assay [1] was 2.92 µM; in assay [3] (setting [5]) it was 15.2 ± 1.4 µM; in assay [3] (Ki, TEM-1 β-lactamase), 15.2 µM. The ΔG was -7.864 kcal/mol in assay [2] and -7.736 kcal/mol in assay [4]. For the same molecule, the ΔH in assay [2] is -0.52 kcal/mol; in assay [4], -0.225 kcal/mol. The figures for the “−TΔS” value in assay [2] and in assay [4] were -7.344 kcal/mol and -7.511 kcal/mol, respectively.

For `O=C(OCc1cccc(B(O)O)c1)c1cc(B(O)O)cc([N+](=O)[O-])c1` [Compound (3d), 3-(3-Boronobenzyloxycarbonyl)-5-nitrophenylboronic acid], the affinity in assay [1], expressed as Ki, was 1.03 µM. In assay [3] (setting [5]), the Ki was 55.7 ± 4.3 µM. In assay [4], the ΔG was -7.442 kcal/mol, the ΔH was -15.637 kcal/mol and the “−TΔS” value was 8.195 kcal/mol.

With `O=C(Oc1c(Cl)cc(Cl)cc1Cl)c1cc(B(O)O)cc([N+](=O)[O-])c1` [Compound (1y), 3-(2,4,6-Trichlorophenoxycarbonyl)-5-nitro-phenylboronic acid], in assay [2], the ΔG is -6.55 kcal/mol, the ΔH was 0 kcal/mol and the “−TΔS” value was -6.55 kcal/mol. For the same molecule, the affinity in assay [3] (Ki, TEM-1 β-lactamase), expressed as Ki, was 15.8 µM.

In assay [1], `O=C(Oc1cccc(B(O)O)c1)c1cc(B(O)O)cc([N+](=O)[O-])c1` [Compound (1v), 3-(3-Boronophenoxycarbonyl)-5-nitrophenylboronic acid] displayed a Ki of 5.01 µM. Also, the affinity in assay [3] (setting [5]) corresponds to a Ki of 32 ± 1.1 µM. In addition, in assay [4], the ΔG is -7.221 kcal/mol, the ΔH was -10.412 kcal/mol and the “−TΔS” value came to 3.191 kcal/mol.

In the case of `O=C(Oc1c(Cl)cc(Cl)cc1[N+](=O)[O-])c1cc(B(O)O)cc([N+](=O)[O-])c1` [Compound (1w), 3-(2,4-Dichloro-6-nitro-phenoxycarbonyl)-5-nitro-phenylboronic acid], in assay [2], the ΔG is -6.409 kcal/mol, the ΔH is -4.554 kcal/mol and the “−TΔS” value is -1.855 kcal/mol. For the same molecule, the inhibition constant (Ki) in assay [3] (setting [5]) was found to be 13 ± 1.1 µM. In assay [3] (Ki, TEM-1 β-lactamase), this molecule yielded a Ki of 12.7 µM.

As to `O=C(Oc1cccc(B(O)O)c1)c1c(Cl)cccc1Cl` [Compound (6a), 3-(2,6-Dichlorophenylcarbonyloxy)phenyl boronic acid], the Ki in assay [1] was determined as 1.53 µM. In assay [3] (setting [5]), this molecule displayed an inhibition constant Ki of 28 ± 2.1 µM. For the same molecule, in assay [4], the ΔG is -7.757 kcal/mol, the ΔH was -6.538 kcal/mol and the “−TΔS” value is -1.219 kcal/mol.

In assay [1], `O=C(Oc1ccc(OC(=O)c2ccc(B(O)O)cc2F)c(Cl)c1)c1ccc(B(O)O)cc1F` [Compound (7a), 4-Borono-2-fluorobenzoic acid 2-chloro-1,4-phenylene ester] showed a Ki of 0.873 µM. Besides, in assay [3] (setting [5]), affinity was put at a Ki of 122 ± 10 µM. Moreover, in assay [4], the ΔG was -7.314 kcal/mol, the ΔH is -9.936 kcal/mol and the “−TΔS” value was 2.622 kcal/mol.

With `O=C(OCc1cccc2ccccc12)c1cc(B(O)O)cc([N+](=O)[O-])c1` [Compound (3e), 3-(1-Naphthalenemethoxycarbonyl)-5-nitrophenylboronic acid], in assay [2], the ΔG is -6.164 kcal/mol, the ΔH is 0.224 kcal/mol and the “−TΔS” value was -6.388 kcal/mol. This molecule had a Ki in assay [3] (Ki, TEM-1 β-lactamase) of 17.1 µM.

Turning to `O=C(Oc1c(Cl)cccc1Cl)c1cc(B(O)O)cc([N+](=O)[O-])c1` [Compound (1n), 3-(2,6-Dichlorophenoxycarbonyl)-5-nitrophenylboronic acid], the ΔG in assay [2] is -5.608 kcal/mol. Besides, the ΔH in assay [2] was -1.173 kcal/mol. For the same molecule, the “−TΔS” value in assay [2] was -4.435 kcal/mol. Also, the inhibition constant (Ki) was determined as 0.62 µM in assay [3] (Ki from Lineweaver-Burke Analysis, values in parenthesis, Lineweaver-Burke analysis); 8.8 ± 0.5 µM in assay [3] (setting [5]); 8.8 µM in assay [3] (Ki, TEM-1 β-lactamase).

The molecule `O=C(Oc1cc(OC(=O)c2cc(B(O)O)cc([N+](=O)[O-])c2)cc(OC(=O)c2cc(B(O)O)cc([N+](=O)[O-])c2)c1)c1cc(B(O)O)cc([N+](=O)[O-])c1` [Compound (12a), Tris(3-borono-5-nitrobenzoic acid), 1,3,5-trihydroxybenzene ester] displayed a Ki in assay [1] of 1.94 µM. Further, in assay [2], the ΔG is -6.468 kcal/mol, the ΔH was -0.69 kcal/mol and the “−TΔS” value is -5.778 kcal/mol. Also, the Ki in assay [3] came to 6.9 µM. Besides, in assay [4], the ΔG was -7.231 kcal/mol, the ΔH was -1.47 kcal/mol and the “−TΔS” value is -5.761 kcal/mol.

In assay [1], `O=C(Oc1cccc(B(O)O)c1)c1ccc(C(=O)Oc2cccc(B(O)O)c2)cc1` [Compound (11a), 1,4-Benzenedicarboxylic Acid, di 3-boronophenyl ester] came in with a Ki of 1.31 µM. Also, in assay [4], the ΔG is -7.548 kcal/mol, the ΔH was -3.114 kcal/mol and the “−TΔS” value was -4.434 kcal/mol.

In the case of `O=C(Oc1c(F)cccc1F)c1cc(B(O)O)cc([N+](=O)[O-])c1` [Compound (1p), 3-(2,6-Difluorophenoxycarbonyl)-5-nitrophenylboronic acid], in assay [2], the ΔG is -5.916 kcal/mol, the ΔH is -6.715 kcal/mol and the “−TΔS” value came to 0.799 kcal/mol. The affinity in assay [3] (setting [5]) corresponds to a Ki of 19.8 ± 1.3 µM. Moreover, the inhibitory constant (Ki) in assay [3] (Ki, TEM-1 β-lactamase) came out at 19.8 µM.

Consider `O=C(Oc1ccc(OC(=O)c2cc(B(O)O)cc([N+](=O)[O-])c2)cc1)c1cc(B(O)O)cc([N+](=O)[O-])c1` [Compound (2a), 3-Borono-5-nitrobenzoic acid 1,4-phenylene ester], for which, in assay [2], the ΔG was -7.451 kcal/mol, the ΔH worked out at 0.274 kcal/mol and the “−TΔS” value was -7.725 kcal/mol. Also, the affinity in assay [3] (setting [5]) corresponds to a Ki of 22.7 ± 1.3 µM. The Ki in assay [3] (Ki, TEM-1 β-lactamase) stood at 22.7 µM.

`O=C(OCc1ccccc1)c1cccc(B(O)O)c1` [Compound F1001]: the inhibition constant (Ki) in assay [1] is 1.79 µM. This molecule also yielded an inhibition constant Ki in assay [3] (setting [5]) of 104 µM. In assay [4], the ΔG is -6.83 kcal/mol, the ΔH is -0.644 kcal/mol and the “−TΔS” value was -6.186 kcal/mol.

On to `Nc1cc(B(O)O)cc(C(=O)OCc2cccc(B(O)O)c2)c1` [Compound (3f), 3-(3-Boronobenzyloxycarbonyl)-5-aminophenylboronic acid], for which the Ki in assay [1] stood at 0.724 µM. Also, in assay [4], the ΔG is -8.151 kcal/mol, the ΔH was -9.325 kcal/mol and the “−TΔS” value worked out at 1.174 kcal/mol.

Turning to `O=C(Oc1cccc(OC(=O)c2cc(B(O)O)cc([N+](=O)[O-])c2)c1)c1cc(B(O)O)cc([N+](=O)[O-])c1` [Compound (9a), 3-Borono-5-nitrobenzoic acid 1,3-phenylene ester], in assay [2], the ΔG is -7.864 kcal/mol, the ΔH was found to be 0.446 kcal/mol and the “−TΔS” value is -8.31 kcal/mol. This molecule came in with a Ki in assay [3] (setting [5]) of 16 ± 1.5 µM. Further, in assay [3] (Ki, TEM-1 β-lactamase), the affinity corresponds to a Ki of 16.2 µM.

`O=C(OCc1cccc(B(O)O)c1)c1cc(O)cc(B(O)O)c1` [Compound (3g), 3-(3-Boronobenzyloxycarbonyl)-5-hydroxylphenylboronic acid]: the Ki in assay [1] stood at 2.69 µM. Further, in assay [4], the ΔG is -7.356 kcal/mol, the ΔH was -3.677 kcal/mol and the “−TΔS” value was -3.679 kcal/mol.

In assay [1], `O=C(Oc1c(Cl)cccc1[N+](=O)[O-])c1ccc(B(O)O)cc1F` [(8a), 4-(2-Chloro-6-nitrophenoxycarbonyl)-3-fluorophenylboronic acid] came in with an inhibition constant (Ki) of 0.913 µM. Moreover, in assay [3] (setting [5]), the affinity corresponds to a Ki of 43 ± 1.6 µM. In addition, in assay [4], the ΔG is -8.19 kcal/mol, the ΔH was -8.486 kcal/mol and the “−TΔS” value came to 0.296 kcal/mol.
